The values that follow come from article PMC9014415, “Repositioning of a Diaminothiazole Series Confirmed to Target the Cyclin-Dependent Kinase CRK12 for Use in the Treatment of African Animal Trypanosomiasis” (Journal of Medicinal Chemistry, 2022).

In this test the test system is T. congolense KONT 2/133. Briefly: Cattle efficacy for compound 1, SC (Clinvet). It counts as in vivo, Trypanosoma congolense. The note with it: for Animals negative for parasites / Animals positive for parasites: 5 mg/kg SC twice 12 h apart. From the text:
However, following the cessation of treatment, parasitaemia quickly re-emerged to such an extent that after 4 days, all calves were positive. It should be noted that in this study, calves were infected with a highly virulent T. congolense isolate known to be resistant to established anti-trypanosomal agents diminazene and isometamidium. Testing compounds in this model represents a rigorous test of efficacy; thus, the observed reduction in parasite numbers in calves dosed with compound 1 was very encouraging. […]
3.3 Cattle efficacy for compound 1 (Clinvet)
In each of the cattle efficacy studies (3.3, 3.4 and 3.5), efficacy was assessed primarily on absence of recrudescence of parasitaemia for 100 days after treatment administration together with improvements in Packed Cell Volume, body weight and clinical signs of infected compared with uninfected animals. Assessment of parasitaemia was based on phase contrast buffy coat examinations and confirmation by PCR at 100 d.
Friesian-Holstein calves, weaned for at least 2 months and with a minimum age of 4 months, housed in a fly-proof building, were infected with Trypanosoma conglense (savannah) KONT 2/133, at a dose of 110,000 parasites (study day 0) via IV infusion. The parasites were obtained from a donor calf. This isolate is resistant to diminazene (20 mg/kg) and isometamidium (1 mg/kg) in cattle, and diminazene (7 mg/kg) and isometamidium (>1 mg/kg) in mice. Calves were parasitaemic by study day 6. Calves (n = 5) were treated with compound 1 (5 mg/kg, SC, twice 12 h apart) on study […]
day at 25 mg/ml in NMP/ 2-pyrrolidinone/ PEG400 water 10/40/30/20. Control groups were comprised of un-infected calves, infected but un-treated calves (n = 6) and calves treated with diminazene (n = 3) or isometamidium (n = 3). The calves were randomised to treatments. Calves were monitored daily for parasitaemia and packed cell volume (PCV) via blood sampling and through […]
One day after treatment, 80% of the animals in the treatment group were negative for parasites.
After 3 d, 100% of the animals in the treatment groups were negative for parasites. After 5 d, 40% of the animals were positive for parasites. […]

[1] abbreviates: 5 mg/kg SC given twice at 12 h intervals.

On to `CC(C)CS(=O)(=O)N[C@H]1CC[C@H](Nc2nc(N)c(C(=O)c3c(F)cccc3F)s2)CC1` [Compound 1, N-((trans)-4-((4-Amino-5-(2,6-difluorobenzoyl)thiazol-2-yl)amino)cyclohexyl)-2-methylpropane-1-sulfonamide], for which, under setting [1], the Parasitaemia in calves result is recorded as “suppressed below the level of detection”. For the same compound, the “Time after cessation of treatment until all calves were positive” value under setting [1] was 4 days. Further, the “Animals negative for parasites” value runs as follows: (after 3 d) 100%; (one day after treatment) 80%. The “Animals positive for parasites” value reads like this: (after 5 d) 40%; (after 6 d) 80%; (after 8 days) 100%.
